In US12616672B2, “Methods for assessing risk of cardiovascular disease and methods and compounds for use in treating or preventing cardiovascular disease” (Queen Mary University of London, priority 2017, dated 2026):
Values joined by “and” are separate entries in the source; they are usually repeats but may differ in a detail not shown here. Equal entries are not always repeated.

Columns and labels:
[1] = system: peripheral blood leukocytes and platelets from CVD patients; assay: CVD patient whole blood incubated with RvD2n-3 DPA or RvD5n-3 DPA for 45 min, flow cytometry; type: cell-based, human; conditions: no PAF
Experimental: FIG. 8: RvD2n-3 DPA and RvD5n-3 DPA reduce leukocyte activation in peripheral blood from CVD patients. Peripheral blood from patients diagnosed with cardiovascular disease (CVD) was collected at 9:00 h. […] Expression of CD62P on (A) neutrophils (B) monocytes and CD11b on (C) neutrophils and (D) monocytes was investigated using flow cytometry and fluorescently labelled antibodies.
Whole blood was incubated with lineage-specific markers for 45 min (4° C., in DPBS containing 0.02% BSA). The following anti-human antibodies were used: VioBlue-anti-CD41, PE-Cy5-anti-CD62P, Brilliant Violet 711-anti-CD11b, APC-Cy7-anti-CD16, Alexa Fluor 647-anti-CD14. After staining, red blood cells were lysed using Whole Blood Lysing Reagent Kit, according to the manufacturer's instructions. Data was collected using a flow cytometer and analysis was conducted using appropriate software.
In select experiments platelet adhesion molecule expression was assessed. Here platelets were incubated with fluorescently labelled mouse anti-human VioBlue-anti-CD41, PE-Cy5-anti-CD62P, PerCP/Cy5.5-anti-CD63 and FITC-ant-CD42b for 30 min at 4° C. Cells were then washed and fluorescence, staining evaluated using LSRFortessa cell analyser (BD Biosciences) and analysed using FlowJo software (Tree Star Inc., V10).

Apo E^−/− mice = assay: Apo E−/− mice given RvD5n-3 DPA: lipid mediator profiling of descending aorta; type: in vivo, mouse
Experimental: Plasma was obtained from peripheral blood of healthy volunteers and patients following centrifugation at 1500×g for 10 min at room temperature. Descending aortas were weighed, placed in ice-cold methanol and homogenized using a glass dounce.
All samples for LC-MS-MS-based profiling were extracted using solid-phase extraction columns as described in Dalli et al. 2013 and Rathod et al. 2017, the contents of which are incorporated herein by reference.
Prior to sample extraction, deuterated internal standards, representing each region in the chromatographic analysis (500 pg each) were added to facilitate quantification in 4V of cold methanol.
Samples were kept at −20° C. for a minimum of 45 min to allow protein precipitation.
Supernatants were subjected to solid phase extraction, methyl formate fraction collected, brought to dryness and suspended in phase (methanol/water, 1:1, vol/vol) for injection on a Shimadzu LC-20AD HPLC and a Shimadzu SIL-20AC autoinjector, paired with a triple quadrupole mass spectrometer with or without a linear ion trap.
An Agilent Poroshell 120 EC-C18 column (100 mm×4.6 mm×2.7 μm) was kept at 50° C. and mediators eluted using a mobile phase consisting of methanol-water-acetic acid of 20:80:0.01 (vol/vol/vol) that was ramped to 50:50:0.01 (vol/vol/vol) over 0.5 min and then to 80:20:0.01 (vol/vol/vol) from 2 min to 11 min, maintained till 14.5 min and then rapidly ramped to 98:2:0.01 (vol/vol/vol) for the next 0.1 min. This was subsequently maintained at 98:2:0.01 (vol/vol/vol) for 5.4 min, and the flow rate was maintained at 0.5 ml/min. Mass spectrometer was operated using a multiple reaction monitoring method as in Walker M E et al. 13-Series resolvins mediate the leukocyte-platelet actions of atorvastatin and pravastatin in inflammatory arthritis. FASEB J. 2017 August; 31(8):3636-3648, the contents of which are incorporated herein by reference.
Each LM was identified using established criteria including matching retention time to synthetic and authentic materials and at least six diagnostic ions (Walker M E et al. 2017. ibid.)
Calibration curves were obtained for each using synthetic compound mixtures at 0.78, 1.56, 3.12, 6.25, 12.5, 25, 50, 100, and 200 pg that gave linear calibration curves with an r^2 values of 0.98-0.99.
Mice (male and female) were fed a western diet for 6 weeks from 4 weeks of age and kept of a 12 h light dark cycle. At 8 weeks of age, mice were given RvD5n-3 DPA (100 ng/mouse; i.v.) or vehicle on alternate days for a 2-week period. Mice were culled, aortic arches were collected and stained using oil-red O as in Khambata R S et al. Anti-inflammatory actions of inorganic nitrate stabilize the atherosclerotic plaque. Proc Natt Acad Sci USA. 2017; 114(4):E550-E559, the contents of which are incorporated herein by reference. Staining intensity was determined using image processing software and expressed as relative units per mm^2. The descending aorta was collected, placed in ice-cold methanol and lipid mediators identified and quantified as described above.

[2] = CVD patient whole blood, 0.1, 1, 10 nM, 45 min
[3] = CVD patient whole blood, 45 min
[4] = 100 ng/mouse i.v., alternate days, 2 weeks, vs vehicle
[5] = Apo E−/− mice, western diet, RvD5n-3 DPA 100 ng/mouse i.v. alternate days 2 weeks, descending aorta, mean, n = 4
[6] = ApoE−/− mice, WD 6 weeks, 100 ng/mouse i.v. alternative days, descending aorta, mean ± s.e.m., n = 4
[7] = ApoE−/− mice, WD 6 weeks, 100 ng/mouse i.v. alternative days, descending aorta, n = 4

**Q.** How did the “monocyte CD11b expression” value [1, 2] turn out when CC/C=C\C[C@H](O)/C=C/C=C\C/C=C\C=C\[C@@H](O)CCCCCC(=O)O [RvD5n-3 DPA, 7,17-trihydroxy-8E,10,13,15E,19Z-docosapentaenoic acid] was run?
**A.** The value was “significantly reduced”.

**Q.** And the “neutrophil CD11b expression” value [1, 2]?
**A.** Its value is “significantly reduced”.

**Q.** What about the platelet-monocyte aggregates [1, 2] of the same compound?
**A.** The platelet-monocyte aggregates was “reduction”.

**Q.** What about the platelet-neutrophil aggregates [1, 2] of the same compound?
**A.** Its platelet-neutrophil aggregates is “reduction”.

**Q.** And the “platelet CD62P expression” value [1, 3]?
**A.** Its value is “downregulated”.

**Q.** What about the “platelet CD63 expression” value [1, 3] of the same compound?
**A.** Its value is “downregulated”.

**Q.** And the “potency in reducing neutrophil-platelet and monocyte-platelet aggregates, compared” value ([1]; CVD patient whole blood)?
**A.** The value was “higher potency than RvD2n-3 DPA”.

**Q.** What about the “aortic 15-epi-LXA4” value (Apo E^−/− mice; [4]) of the same compound?
**A.** Its value is “significant upregulation”.

**Q.** And the “aortic MaR1” value (Apo E^−/− mice; [4])?
**A.** The value was “significant upregulation”.

**Q.** And the aortic prostanoids (Apo E^−/− mice; [4])?
**A.** The aortic prostanoids was “significant reductions”.

**Q.** And the “reduction of aortic TxB2 concentrations” value (Apo E^−/− mice; [4])?
**A.** The value was ~35% and > 35%.

**Q.** What about the “PGD2 concentration in aortic tissue” value (Apo E^−/− mice; [5]) of the same compound?
**A.** The value was 15.0 pg/10 mg tissue.

**Q.** What about the “PGE2 concentration in aortic tissue” value (Apo E^−/− mice; [5]) of the same compound?
**A.** Its value is 16.2 pg/10 mg tissue.

**Q.** And the “PGF2a concentration in aortic tissue” value (Apo E^−/− mice; [5])?
**A.** Its value is 9.1 pg/10 mg tissue.

**Q.** What about the “TxB2 concentration in aortic tissue” value (Apo E^−/− mice; Apo E−/− mice, western diet, RvD5n-3 DPA 100 ng/mouse i.v. alternate days 2 weeks, descending aorta, mean, n = 4, p < 0.05 vs Vehicle) of the same compound?
**A.** The value was 30.7 pg/10 mg tissue.

**Q.** And the “4,14-diHDHA in aorta” value (Apo E^−/− mice; [6])?
**A.** The value was 4.9 ± 2.0 pg/10 mg aorta.

**Q.** And the “5S,12S-diHETE in aorta” value (Apo E^−/− mice; [6])?
**A.** Its value is 0.6 ± 0.2 pg/10 mg aorta.

**Q.** What about the “5S,15S-diHETE in aorta” value (Apo E^−/− mice; [6]) of the same compound?
**A.** The value was 51.9 ± 15.3 pg/10 mg aorta.

**Q.** What about the “7S,14S-diHDHA in aorta” value (Apo E^−/− mice; [6]) of the same compound?
**A.** Its value is 1.8 ± 0.3 pg/10 mg aorta.

**Q.** What about the “10S,17S-diHDHA in aorta” value (Apo E^−/− mice; [6]) of the same compound?
**A.** The value was 66.0 ± 35.4 pg/10 mg aorta.

**Q.** And the 15-epi-LXA4 in aorta (Apo E^−/− mice; [6])?
**A.** The 15-epi-LXA4 in aorta was 9.6 ± 1.9 pg/10 mg aorta.

**Q.** And the 15-epi-LXB4 in aorta (Apo E^−/− mice; [6])?
**A.** Its 15-epi-LXB4 in aorta is 1.4 ± 0.5 pg/10 mg aorta.

**Q.** What about the 17R-PD1 in aorta (Apo E^−/− mice; [6]) of the same compound?
**A.** Its 17R-PD1 in aorta is 0.3 ± 0.2 pg/10 mg aorta.

**Q.** What about the 17R-RvD1 in aorta (Apo E^−/− mice; [6]) of the same compound?
**A.** Its 17R-RvD1 in aorta is 1.6 ± 0.9 pg/10 mg aorta.

**Q.** What about the 17R-RvD3 in aorta (Apo E^−/− mice; [6]) of the same compound?
**A.** Its 17R-RvD3 in aorta is 1.3 ± 0.3 pg/10 mg aorta.

**Q.** What about the 22-OH-PD1 in aorta (Apo E^−/− mice; [6]) of the same compound?
**A.** The 22-OH-PD1 in aorta was 6.0 ± 1.0 pg/10 mg aorta.

**Q.** What about the LTB4 in aorta (Apo E^−/− mice; [6]) of the same compound?
**A.** Its LTB4 in aorta is 1.7 ± 0.3 pg/10 mg aorta.

**Q.** What about the LXA4 in aorta (Apo E^−/− mice; [6]) of the same compound?
**A.** The LXA4 in aorta was 0.3 ± 0.0 pg/10 mg aorta.

**Q.** And the LXB4 in aorta (Apo E^−/− mice; [6])?
**A.** Its LXB4 in aorta is 0.6 ± 0.4 pg/10 mg aorta.

**Q.** And the MaR1 in aorta (Apo E^−/− mice; [6])?
**A.** Its MaR1 in aorta is 35.4 ± 22.7 pg/10 mg aorta.

**Q.** And the PD1 in aorta (Apo E^−/− mice; [6])?
**A.** The PD1 in aorta was 2.6 ± 0.7 pg/10 mg aorta.

**Q.** What about the “PD1n-3 DPA in aorta” value (Apo E^−/− mice; [6]) of the same compound?
**A.** The value was 0.0 ± 0.0 pg/10 mg aorta.

**Q.** What about the PGD2 in aorta (Apo E^−/− mice; [6]) of the same compound?
**A.** The PGD2 in aorta was 14.9 ± 3.5 pg/10 mg aorta.

**Q.** And the PGE2 in aorta (Apo E^−/− mice; [6])?
**A.** The PGE2 in aorta was 20.5 ± 4.5 pg/10 mg aorta.

**Q.** What about the PGF2α in aorta (Apo E^−/− mice; [6]) of the same compound?
**A.** Its PGF2α in aorta is 10.0 ± 1.7 pg/10 mg aorta.

**Q.** What about the RvD1 in aorta (Apo E^−/− mice; [6]) of the same compound?
**A.** Its RvD1 in aorta is 1.7 ± 0.9 pg/10 mg aorta.

**Q.** What about the “RvD1n-3 DPA in aorta” value (Apo E^−/− mice; [6]) of the same compound?
**A.** The value was 0.1 ± 0.1 pg/10 mg aorta.

**Q.** And the RvD2 in aorta (Apo E^−/− mice; [6])?
**A.** Its RvD2 in aorta is 0.4 ± 0.4 pg/10 mg aorta.

**Q.** What about the “RvD2n-3 DPA in aorta” value (Apo E^−/− mice; [6]) of the same compound?
**A.** The value was 0.1 ± 0.1 pg/10 mg aorta.

**Q.** And the RvD3 in aorta (Apo E^−/− mice; [6])?
**A.** Its RvD3 in aorta is 2.4 ± 0.6 pg/10 mg aorta.

**Q.** And the RvD5 in aorta (Apo E^−/− mice; [6])?
**A.** Its RvD5 in aorta is 0.4 ± 0.2 pg/10 mg aorta.

**Q.** And the “RvD5n-3 DPA in aorta” value (Apo E^−/− mice; [6])?
**A.** Its value is 0.1 ± 0.1 pg/10 mg aorta.

**Q.** What about the RvD6 in aorta (Apo E^−/− mice; [6]) of the same compound?
**A.** Its RvD6 in aorta is 1.5 ± 1.1 pg/10 mg aorta.

**Q.** What about the RvE2 in aorta (Apo E^−/− mice; [6]) of the same compound?
**A.** The RvE2 in aorta was 0.1 ± 0.1 pg/10 mg aorta.

**Q.** What about the RvE3 in aorta (Apo E^−/− mice; [6]) of the same compound?
**A.** Its RvE3 in aorta is 0.7 ± 0.1 pg/10 mg aorta.

**Q.** What about the RvEl in aorta (Apo E^−/− mice; [6]) of the same compound?
**A.** The RvEl in aorta was 1.8 ± 0.5 pg/10 mg aorta.

**Q.** And the TxB2 in aorta (Apo E^−/− mice; [6])?
**A.** The TxB2 in aorta was 34.5 ± 4.1 pg/10 mg aorta.

**Q.** What about the 20-OH-LTB4 in aorta (Apo E^−/− mice; [7]) of the same compound?
**A.** Its 20-OH-LTB4 in aorta is “— (Below limits of detection)”.

**Q.** What about the “MaR1n-3 DPA in aorta” value (Apo E^−/− mice; [7]) of the same compound?
**A.** Its value is “— (Below limits of detection)”.

**Q.** What about the RvD4 in aorta (Apo E^−/− mice; [7]) of the same compound?
**A.** Its RvD4 in aorta is “— (Below limits of detection)”.

**Q.** What about the RvT1 in aorta (Apo E^−/− mice; [7]) of the same compound?
**A.** Its RvT1 in aorta is “— (Below limits of detection)”.

**Q.** And the RvT2 in aorta (Apo E^−/− mice; [7])?
**A.** The RvT2 in aorta was “— (Below limits of detection)”.

**Q.** And the RvT3 in aorta (Apo E^−/− mice; [7])?
**A.** The RvT3 in aorta was “— (Below limits of detection)”.

**Q.** And the RvT4 in aorta (Apo E^−/− mice; [7])?
**A.** Its RvT4 in aorta is “— (Below limits of detection)”.
